Assays:
[1] = test system: NAG-1; assay: Northern blot analysis of NAG-1 mRNA expression in HCT-116 cells; format: cell-based, human
Description: Upon reaching 60–80% confluence in 10 cm plates, the cells were treated at indicated concentrations and times with either different NSAIDs or PPARγ ligands in the absence of serum. Total RNAs were isolated using TRIzol reagent (Life Technologies) according to the manufacturer's protocol. For Northern blot analysis, […] of total RNA was denatured at 55° C. for 15 min and separated in a 1.2% agarose gel containing 2.2 M formaldehyde, and transferred to Hybond-N membrane ([…]). After fixing the membrane by UV, blots were prehybridized in hybridization solution (Rapid-hyb buffer, […]) for 1 hr at 65° C. followed by hybridization with cDNA labeled with [α-^32P]dCTP by random primer extension (DECAprimeII kit, Ambion). The probes used were either full-length NAG-1 fragment or PTGFB clone (generously provided by Dr. Bento-Soar of the University of Iowa). After 4 hr incubation at 65° C., the blots were washed once with 2×SSC/0.1% SDS at RT and twice with 0.1×SSC/0.1% SDS at 65° C. Messenger RNA abundance Was estimated by intensities of the hybridization bands of autoradiographs using Scion Image (Scion). Equivalent loading of RNA samples was confirmed by hybridizing the same blot with a ^32P-labeled b-actin probe which recognizes RNA of approximately 2 kb.
To determine whether other NSAIDs increased apoptosis and NAG-1 expression, tests were conducted to determine whether variants of NSAIDs induced NAG-1 gene expression and NSAID-induced apoptosis. Aspirin, ibuprofen, indomethacin, and sulindac sulfide were selected since they are known COX inhibitors. […] HCT-116 cells were treated with different NSAIDs (vehicle, 0.2% DMSO; aspirin, 10 mM; ibuprofen, 1 mM; sodium salicylate, 5 mM; sulindac sulfide, 50 μM; sulindac, 40 μM; acetaminophen, 100 μM) for 24 hr in the absence of serum. Northern analysis was performed using NAG-1 and β-actin as probes. Total RNAs were isolated from NSAID-treated HCT-116 cells after 24 hr treatment and Northern blot was performed using NAG-1 cDNA as a probe (data not shown). […] Each of the doses were as follows: aspirin (1, 5, 10 mM); ibuprofen (100, 500, 1000 μM); salicylate (1, 2.5, 5 mM); sulindac sulfide (1, 10, 50 μM); sulindac (10, 20, 40 μM); acetaminophen (10, 50, 100 μM). After 48 hr treatment with NSAIDs in the presence of serum, cells were harvested and assayed as described in FIG. 1C. Apoptosis detected by PI staining was measured by FACS, as known in the art (FIG. 2A; HCT-116 cells were treated with different NSAIDs (vehicle, 0.2% DMSO; Aspirin, 10 mM; Ibuprofen, 1 mM; Sodium Salicylate, 5 mM; Sulindac Sulfide, 50 μM; Sulindac, 40 μM; Acetaminophen, 100 μM) for 24 hr in the absence of serum. Northern analysis was performed using NAG-1 and β-actin as probes. The open bars represent the relative expression of NAG-1 mRNA over the control (vehicle). The hatched bars represent the relative apoptosis ratio over vehicle treatment by PI staining methods. N=3±S.D.).
(§1) In the Table below, HCT-116 cells were treated with different NSAIDs (vehicle, 0.2% DMSO) for 24 hr in the absence of serum. Northern analysis was performed using NAG-1 and β-actin as probes. The data represent relative expression of NAG-1 mRNA over the control (1.0). Each NSAID was tested at 3 different concentrations and maximally effective concentration used for apoptosis determination. Apoptosis ratio by PI staining was measured by FACS. After 48 hr treatment with NSAIDs in the presence of serum, cells were harvested and assayed. The data represent relative apoptosis ratio over vehicle treatment by PI staining methods. TACS™ Annexin V-FITC kit was also used to confirm apoptosis.

[2] = test system: HCT-116 cells; assay: Apoptosis and cell cycle by PI staining / FACS in HCT-116 cells; format: cell-based, human
Description: To determine whether NAG-1 gene expression is associated with NSAID-induced apoptosis or altered cell cycle kinetics, flow cytometric analysis of the distribution of cells at various stages of the cell cycle was performed. Apoptosis and cell cycle kinetics of INDO-treated HCT-116 cells were measured at different time points. HCT-116 cells were treated with INDO, stained with PI, and analyzed by flow cytometry. Seven thousand five hundred cells were examined by flow cytometry by gating on an area versus width dot plot to exclude cell debris and cell aggregates. Apoptosis is represented by the fold increase in sub-G1 population over 0 hr treatment.
The DNA content for NSAIDs, PPARγ ligand, and vehicle treated HCT-116 cells was determined by FACS. Cells were plated at a density of 4×10^5 cells/well in 2 ml of medium in 6 well plates, incubated for 16 h, and then treated with NSAIDs or TGZ in the presence of serum. After treatment, the cells were harvested, washed with PBS, fixed by the slow addition of cold 70% ethanol to a total of 1 ml, and stored overnight at 4° C. The fixed cells were pelleted, washed once with PBS, and stained in 1 ml of 20 μg/ml of propidium iodide (PI), 1 mg/ml RNase in PBS for 20 min. Seven thousand five hundred cells were examined by flow cytometry using Becton Dickinson FACSort equipped with CellQuest software, by gating on an area versus width dot plot to exclude cell debris and cell aggregates. Each cell cycle distribution was analyzed by the McCycle program using one cell cycle parameter. Apoptosis was measured based on the level of sub-diploid DNA contained in cells following treatment with NSAIDs or TGZ using CellQuest software.
as §1, with “Northern” for “In the Table below, HCT-116 cells were treated with different NSAIDs (vehicle, 0.2% DMSO) for 24 hr in the absence of serum. Northern”, “After 48 hr treatment with NSAIDs in the presence of serum, cells were harvested and assayed.” left out

For `COc1ccc2c(c1)c(CC(=O)O)c(C)n2C(=O)c1ccc(Cl)cc1` [Indomethacin], the “NAG-1 mRNA expression” value ([1]; HCT-116, 100 μM INDO, 24 hr, no serum) was “significant increase”, the “NAG-1 Induction (mRNA) Fold” value ([1]; HCT-116, 24 hr in absence of serum, relative NAG-1 mRNA over vehicle control (1.0), tested over the concentration range listed) was 2.2 Fold and the “Increase in apoptosis (sub-G1 population over 0 hr)” value ([2]; HCT-116, 36 hr exposure) was roughly 3 fold. For the same compound, the “Apoptosis (PI Staining), relative apoptosis ratio over vehicle” value ([2]; HCT-116, 48 hr in presence of serum, maximally effective concentration, FACS) was 2.9 ± 0.121, the “Increase in apoptosis (sub-G1 population over 0 hr)” value ([2]; HCT-116, 60 hr exposure) was 4.5 fold and the “Earliest time at which apoptosis was observed” value ([2]; HCT-116, presence of serum, TGZ 5 μM) was 36 h. For the same compound, the “Time point at which G1 arrest was seen” value ([2]; HCT-116, TGZ 5 μM) was 12 h.
